As a reminder, the LD50 is the dose expected to kill half of the subjects tested.

Each structure is given as a SMILES string. Where two headings read alike, the source gives them in different places.

We go through two compounds from US4312883A, “Furocoumarin for the photochemotherapy of psoriasis and related skin diseases” (Consiglio Nazionale delle Ricerche, priority 1979, dated 1982).

The subject of data set [1] is DNA synthesis in Ehrlich ascites tumor cells. Nature of the data set: Inhibition of DNA synthesis (and DNA and RNA synthesis) on irradiation at 365 nm. In kind it is cell-based. As to conditions: relative (ang = 100). From the text: (§1) Photobiological activity: A significant test for assessing photobiological activity of alkylangelicins is the study of their capacity to inhibit DNA and RNA synthesis in Ehrlich ascites tumor cells. In Table III the capacity of inhibition is expressed as ID50, that is the irradiation does, in terms of quanta at 365 nm, necessary to inhibit in these cells the 50% of the DNA and RNA synthesis in the presence of a constant amount of alkylangelicin. […] Moreover, in general it can be observed that in this simple biological system a close correlation exists between photobiological activity and the capacity to induce photochemical lesions in DNA, that is photoreactivity.

For another data set, the system named is psoriasis. Nature of the data set: Topical photochemotherapy of psoriasis in patients. In kind it is in vivo, human. Particulars: for No. of patients with Excellent result / No. of patients with Fair result / No. of patients with Good result / No. of patients with Poor result: topical 0.1% w/v + UV-A; for No. of patients with Excellent result: Excellent = 90% clearance; for No. of patients with Fair result: Fair = 50-70%; for No. of patients with Good result: Good = 70-90%; for No. of patients with Poor result: Poor 40%. The text has this:
Clinical data: The effectiveness of certain representative alkylangelicins according to the present invention, specifically 5-methylangelicin, 4,5'-dimethylangelicin, 4'-hydroxymethyl-4,5'-dimethylangelicin, 4'-hydroxymethyl-4,5'-dimethylangelicin and 4,5-dimethylangelicin, has been tested by measuring their capacity to resolve psoriasis in various patients. For a direct comparison the efficacy of the parent unsubstituted angelicin and that of three very effective linear furocoumarins, that is 8-methoxypsoralen (8-MOP), 5-methoxypsoralen (5-MOP), and 4,5',8-trimethylpsoralen (TMP) were also tested.
In each treatment four areas of the affected skin were used;
(a) In the first area an alcohol lotion, containing 10% glycerine, of the tested compound (0.1% w/v) was applied until a concentration of […] was reached then left to evaporate by the heat of the body. After half an hour the area was irradiated with high intensity UV-A emitting low pressure mercury fluorescent lamps with a wavelength of 320-400 nm. The irradiation doses were selected in the range of 4.5-13 J/cm^2 for each application as a function of the sensitivity of the skin of the patients; when the skin sensitivity was higher, the light doses were lower and vice versa.
(b) A second area was treated with an alcohol solution of the drug as in (a) but it was covered and maintained in the dark.
(c) A third area, where the drug was not applied, was irradiated as in (a) but in general with higher UV-A doses.
(d) A fourth area was not treated at all, neither with the drug, not with UV-A.
The treatment with the alkylangenlicins referred to above was repeated 5 time a week for two or more weeks; the total number of treatments was between 8 and 20 per subject. In some cases, as for instance with 5-methylangelicin, a good clearing of psoriasis was observed after 8 treatments.
In order to avoid induction of photosensitization processes such as redness and erythema in the reference tests made with the linear furocoumarins 8-MOP, 5-MOP, TMP, lower light doses were used than in the case of alkylangelicins, the treatments were repeated at a frequency of no more than three times a week.

A further data set has as its system skin. Nature of the data set: Relative skin phototoxicity. As to conditions: (psr = 100).
Data set [2] concerns RNA synthesis in Ehrlich ascites tumor cells. Put plainly: Inhibition of RNA synthesis on irradiation at 365 nm. Particulars: relative (ang = 100). Format: cell-based.
Excerpt: as §1

For data set [3], the system named is DNA. Put plainly: Capacity to form inter-strand cross-linkages in DNA. As to conditions: (psr = 100). Format: biochemical. The method, then: All these compounds were not suitable to photoinduce in DNA inter-strand cross-linkages. […] These tests were carried out according to the method of F. Bordin et al., Photochem. Photobiol., 29,1063 (1979).
A further data set in a line: Acute toxicity in mice. As to conditions: mouse, in vivo, po.
The test system of data set [4] is epidermal DNA synthesis. Put plainly: Inhibition of epidermal DNA synthesis in the mouse in vivo after topical application and UV-A irradiation. As to conditions: light or radiation study, 0.01% methanol solutions, UV-A 9 J/cm^2, read-out: Percent inhibition ± standard error of epidermal DNA synthesis. The procedure:
DNA samples were dissolved in water and their specific radioactivity determined.
Each drug substance was studied using at least six mice.

The subject of data set [5] is Salmonella typhimurium TA 100. Put plainly: Ames test. In kind it is cell-based. As to conditions: Salmonella typhimurium TA 100 his G46 (uvrB^- rfa) pKM101; versus 4,5'-dimethylangelicin. (The Ames test detects mutagens through reverse mutation in bacteria.)
Data set [6] relates to DNA. Nature of the data set: Dark complex formation (intercalation) with DNA in the ground state, binding parameters. Further details: K (association constants) of the complexes with DNA: unit not given here. Particulars: for K (association constants) of the complexes with DNA / 1/n (frequency of binding sites): in vitro, ground state; for K (association constants) of the complexes with DNA: McGhee and Von Hippel method; for 1/n (frequency of binding sites): molecules bound per nucleotide; for 1/n (frequency of binding sites), relative / K (association constants), relative: relative (ang = 100). From the text: Dark complex formation: It is known from F. Dall'Acqua, et al. Chem.-Biol. Interactions 21,103 (1978) that the intercalated complex formed by furocoumarins with DNA strongly affects the successive photoaddition increasing the rate of photobinding. […] These parameters have been determined according to the method of McChee and Von Hippel, J.Mol.Biol, 86, 469 (1974).
(a) Determined according to Mc Ghee and Von Hippel, J. Mol. Biol.,

The subject of data set [7] is DNA. Put plainly: Photobinding to DNA, rate constants of the photoreactions. Format: biochemical. As to conditions: for Rate constants of the photoreactions with DNA: in vitro, UV-A irradiated; for Rate constants of the photoreactions with DNA, relative: relative (ang = 100). From the text:
(b) Determined according to F. Dall'Acqua, S. Marciani, F. Zambon and G.
Rodighiero, Photochem. Photobiol., 29,489(1979).
Photobinding capacity to DNA: The introduction of one or two methyl groups in the molecule of angelicin leads to a strong increase of the photobinding to DNA; see Table II. […] Photobiol., 29, 489 (1979).

The conditions of data set [8]: known furocoumarins, Table I; cited from earlier work.
The conditions of data set [9]: cited from earlier work.
Data set [10] relates to epidermal DNA synthesis. Put plainly: Inhibition of the synthesis of epidermal DNA of the mouse in vivo after oral administration and UV-A irradiation. As to conditions: oral 0.25 g/Kg, UV-A 9 J/cm^2 after two hours. From the text: Considering that the topical skin tests carried out on mice to evaluate the effectiveness of these substances has yielded data which correlate well with the clinical data, such a test conveniently modified has been adopted to evaluate the effectiveness of the alkylangelicins after oral administration followed by UV-A irradiation.
In this connection experiments have been conducted using mice 20±2 g in weight, that were starved for three hours before oral administration of the alkylangelicins. Groups of 5 mice were fed a suspension of 0.5% methylcellulose in water containing the alkylangelicins of the invention at a dosage of 0.25 g/Kg. The animals were kept in the dark for two hours, that is for the time necessary for absorption, systemic distribution and localization of the drug at the level of the skin. The animals were then irradiated with UV-A light, 9 J/cm^2. Later the animals were sacrificed and the inhibition of the epidermal DNA synthesis was tested; the results obtained are reported in Table VI. The skin on the back, protected from light by a dark paper, was assumed as a control. As a reference 8-MOP, used under the same experimental conditions, was also tested. The significant activity of the alkylangelicins according to the present invention, higher than that of 8-MOP, in inhibiting the epidermal DNA synthesis in mice upon oral administration allows one to consider these compounds as also being effective for oral administration to humans for photochemotherapy of psoriasis and of other skin diseases that are characterized by cellular hyperproliferation.

The test system of data set [11] is DNA. As to conditions: cited from earlier work.
The test system of data set [12] is DNA. Particulars: (psr = 100); footnote (c), reference compounds; cited from earlier work.
The subject of a further data set is melamin pigmentation. Particulars: Table I; cited from earlier work.
For another data set, the system named is DNA synthesis. As to conditions: Table I; cited from earlier work.
The conditions of data set [13]: Table I; cited from earlier work.

As to `Cc1cc2occc2c2oc(=O)ccc12` [5-methylangelicin], in data set [1], the “inhibition of DNA synthesis, relative” value is given as 275. For the same compound, in the data set with psoriasis, the “No. of patients with Excellent result” value stood at 2 patients, the “No. of patients with Fair result” value worked out at 0 patients, the “No. of patients with Good result” value is listed as 5 patients and the “No. of patients with Poor result” value is given as 0 patients. For the same compound, in the data set on psoriasis (topical + UV-A), the “efficacy in psoriasis patients (in words)” value is listed as “very active, probably more active than the same amount of 8-MOP”. In addition, the “number of treatments to good clearing of psoriasis” value with psoriasis (topical + UV-A, 5 times a week, in some cases) was determined as 8 treatments. For the same compound, the Relative skin phototoxicity in the data set on skin is 0. For the same compound, in data set [2], the “inhibition of RNA synthesis, relative” value is recorded as 281. Besides, in the data set on DNA [3], the “capacity to form interstrand cross-linkages” value was found to be 0. The LD50 in the data set “Acute toxicity in mice” stood at 2000 mg/kg. Moreover, in the data set on epidermal DNA synthesis [4], the inhibition in vivo at 0.01 % came out at 47.5 ± 1.19%. The “mutagenic activity (Ames test)” value in data set [5] is reported as “of the same order of magnitude as that of 4,5'-dimethylangelicin”. Moreover, in the data set with DNA [6], the “K (association constants) of the complexes with DNA” value stood at 1560; the “1/n (frequency of binding sites)” value came to 0.071; the “1/n (frequency of binding sites), relative” value is given as 112; the “K (association constants), relative” value is listed as 278. For the same compound, in the data set with DNA [7], the “Rate constants of the photoreactions with DNA” value amounted to 3.41 K × 10^-2 × min^-1 and the “Rate constants of the photoreactions with DNA, relative” value was 298.

As for `COc1c2occc2cc2ccc(=O)oc12` [8-MOP, 8-methoxypsoralen, reference compound], the Photosensitizing activity result in data set [8] was “known, strong”. Moreover, in data set [9] (oral), the “Carcinogenicity (oral)” value was “weak”. Moreover, in data set [9] (topical), the “Carcinogenicity (topical)” value is on record as “strong”. Besides, the “Percent inhibition ± standard error of epidermal DNA synthesis” value in the data set with epidermal DNA synthesis [10] is given as 39.1 ± 3.7%. The “inhibition of DNA synthesis, relative” value in data set [1] was found to be 249. Besides, in the data set with psoriasis, the “No. of patients with Excellent result” value worked out at 3 patients, the “No. of patients with Fair result” value was determined as 2 patients, the “No. of patients with Good result” value is 3 patients and the “No. of patients with Poor result” value came out at 2 patients. In the data set with DNA [11] (Table I), the DNA intercalation property entry is “strong”; the “Interstrand cross-linking induction in DNA” value is given as “strong, well known”; the Monoadduct forming property entry is listed as “known, strong”. Also, the “Photobinding capacity to DNA” value in the data set with DNA [11] (known furocoumarins) is “known, strong”. This compound also had a Relative skin phototoxicity in the data set with skin of 71. Also, in the data set with DNA [12], the “capacity to form interstrand cross-linkages” value was 63. In addition, the “Stimulation of melamin pigmentation” value with melamin pigmentation was “strong, well known”. In addition, the “inhibition of RNA synthesis, relative” value in data set [2] is on record as 93. The compound also returned an LD50 in the data set “Acute toxicity in mice” of 800 mg/kg. In addition, the inhibition in vivo at 0.01 % in the data set with epidermal DNA synthesis [4] came out at 61 ± 1.6%. The “DNA synthesis inhibiting property” value in the data set on DNA synthesis is “known, strong”. In the data set on DNA [6], the “K (association constants) of the complexes with DNA” value is 740; the “1/n (frequency of binding sites)” value was 0.128; the “1/n (frequency of binding sites), relative” value stood at 203; the “K (association constants), relative” value stood at 132. In the data set on DNA [7], the “Rate constants of the photoreactions with DNA” value is listed as 2.3 K × 10^-2 × min^-1 and the “Rate constants of the photoreactions with DNA, relative” value was 209. The Mutagenicity result in [13] is on record as “known, strong”.
